According to patent publication US20090197957A1, “Methods and compositions for the treatment of pain” (Nuon Therapeutics, Inc., priority 2005, published 2009):

Columns and labels:
Cyclooxygenase COX-2 = target: T1, Cyclooxygenase COX-2 (Homo sapiens, UniProt P35354); experiment: 118010 Cyclooxygenase COX-2 biochemical assay (EIA quantitation of PGE2)
T1 construct: host or cells: insect Sf21
T1 sequence (P35354 18-604): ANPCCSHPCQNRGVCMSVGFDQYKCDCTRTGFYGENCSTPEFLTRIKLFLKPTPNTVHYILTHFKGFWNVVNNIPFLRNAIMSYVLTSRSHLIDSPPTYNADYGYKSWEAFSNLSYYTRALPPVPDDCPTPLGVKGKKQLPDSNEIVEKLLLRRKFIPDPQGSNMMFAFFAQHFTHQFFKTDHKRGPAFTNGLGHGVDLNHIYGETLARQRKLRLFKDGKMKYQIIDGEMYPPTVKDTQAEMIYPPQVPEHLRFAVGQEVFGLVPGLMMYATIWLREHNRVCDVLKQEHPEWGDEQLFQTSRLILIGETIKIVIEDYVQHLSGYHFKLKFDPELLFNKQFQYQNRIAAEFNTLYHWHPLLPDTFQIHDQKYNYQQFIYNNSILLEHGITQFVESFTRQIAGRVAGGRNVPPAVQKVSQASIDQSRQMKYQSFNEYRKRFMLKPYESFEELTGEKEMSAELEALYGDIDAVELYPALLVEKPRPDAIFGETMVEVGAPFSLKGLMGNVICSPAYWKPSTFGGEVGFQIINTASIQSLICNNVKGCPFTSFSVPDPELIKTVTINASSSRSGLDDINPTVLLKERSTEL
Protocol: (§1) Methods employed in this study have been adapted from the scientific literature to maximize reliability and reproducibility. […] Assays were performed under conditions described in the accompanying “Methods” section of this report. The literature references for each assay are in the “Literature References” section. If either of these sections were not originally requested with the accompanying report, please contact us at the number below for a printout of either of these report sections.
(§2) Biochemical assay results are presented as the percent inhibition of specific binding or activity throughout the report.

Cyclooxygenase COX-1 = Cyclooxygenase COX-1 (Homo sapiens, UniProt P23219); experiment: biochemical
Chain of Cyclooxygenase COX-1 (P23219 24-599): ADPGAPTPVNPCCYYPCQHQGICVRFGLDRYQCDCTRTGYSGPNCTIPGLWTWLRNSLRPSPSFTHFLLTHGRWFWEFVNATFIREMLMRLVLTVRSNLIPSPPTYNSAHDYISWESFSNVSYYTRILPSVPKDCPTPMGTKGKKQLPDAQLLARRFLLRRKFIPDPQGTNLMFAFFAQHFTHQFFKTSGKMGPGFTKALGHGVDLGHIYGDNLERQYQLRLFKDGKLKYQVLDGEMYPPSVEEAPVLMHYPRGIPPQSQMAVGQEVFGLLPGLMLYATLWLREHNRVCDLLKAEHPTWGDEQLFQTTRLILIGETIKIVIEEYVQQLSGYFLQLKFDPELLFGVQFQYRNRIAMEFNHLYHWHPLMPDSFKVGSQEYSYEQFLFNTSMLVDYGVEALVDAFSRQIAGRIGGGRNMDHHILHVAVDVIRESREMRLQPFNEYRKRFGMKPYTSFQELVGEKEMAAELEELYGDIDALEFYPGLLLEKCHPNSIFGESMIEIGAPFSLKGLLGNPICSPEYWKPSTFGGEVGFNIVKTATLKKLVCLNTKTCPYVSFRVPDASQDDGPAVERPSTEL
Protocol: as §1, §2

## COc1ccc(/C=C/C(=O)Nc2ccccc2C(=O)O)cc1OC [Tranilast, 2-[[3-(3,4-dimethoxyphenyl)-1-oxo-2-propenyl]amino]benzoic acid]
Cyclooxygenase COX-2
  effect on the activity of the COX-2 enzyme: no effect
Cyclooxygenase COX-2; 10 μM, n=2
  inhibition at 10 µM: 0%
Cyclooxygenase COX-1
  effect on the activity of the COX-1 enzyme: no effect
  inhibition at 10 µM: -2%
